According to US20230090255A1, “MAGL INHIBITOR, PREPARATION METHOD THEREFOR AND USE THEREOF” (LUNAN PHARMACEUTICAL GROUP CORPORATION, priority 2019, published 2023):

Columns and labels:
[1] = test system: mice pain response induced by hot plate; assay: Mice pain response induced by hot plate; assay type: in vivo, ICR mice; conditions: for Pain threshold: hot plate 55°C
How it was run: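 Female ICR mice (20±2 g) dosed intragastrically for 7 consecutive days. Latency to hind-paw licking on a 55±0.5° C hot plate measured at 30, 60, 90 and 120 min after the last dose, with a 60 s cap. Mice with baseline latency <5 s or >30 s, or jumping, excluded.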

[2] = test system: ulcerative colitis mice; assay: Mice ulcerative colitis (DSS); assay type: in vivo, BALB/c mice; conditions: for Total times of hematochezia within the four periods / Colon length / IL-1 content: DSS mice; for Colon length: four periods; for IL-1 content: serum, ELISA
[3] = test system: mice writhing caused by acetic acid; assay: Mice writhing caused by acetic acid; conditions: for Writhing times: 1 h before 0.7% acetic acid ip, within 20 min; for Latent time: time to first writhing; for Inhibition ratio: writhing inhibition
Experimental: Each compound was prepared into a suspension by 0.5% sodium carboxymethylcellulose respectively, and then set according to the dose, and each administration group was administered intragastrically; the model group was administered intragastrically an equal volume of 0.5% sodium carboxymethylcellulose.
Mice were intraperitoneally injected with acetic acid to cause a large area and more lasting painful stimuli in deep enterocoelia, causing mice to produce writhing responses. After being administered for 1 h, each dose group was intraperitoneally injected with 0.7% acetic acid-normal saline solution (0.1 ml/10 g).
The time (pain latent time) that the mice started to appear writhing after being intraperitoneally injected with acetic acid was recorded.
The writhing response times of each mouse within 20 min were recorded after injecting acetic acid to cause pain, and then, the writhing inhibition ratio of each administration group was calculated.
Writhing inhibition ratio = [(writhing times of the control group -writhing times of the administration group)/writhing times of the control group] × 100%
Experimental data is shown by x±s and subjected to variance analysis by SPSS 15.0 software.

[4] = test system: irritable bowel syndrome rats; assay: Irritable bowel syndrome rats induced by early maternal separation; assay type: in vivo, SD rats; set-up: AWR scoring: scale not given here; conditions: for Colon 5-HT / Serum 5-HT / AWR scoring: IBS rats
[5] = test system: mice with inflammatory pain; assay: Pain threshold of mice with inflammatory pain (complete Freund's adjuvant); assay type: in vivo, SD mice; conditions: for Pain threshold: complete Freund's adjuvant paw model

In the case of `Cn1c(C(=O)N2CCC(C(=O)Nc3cccc(Cl)c3)CC2)cc2ccccc21` [MAGLZ-II-18 (c)], the “pain thresholds of the thermal-stimulus mice, in words” value ([1]; compared with the model group) is reported as “significantly extend”, the Pain threshold ([1]; high dose 30 mg/kg ig 7 d, 30 min after final administration) is reported as 29.23 ± 7.95 s and the Pain threshold ([1]; high dose 30 mg/kg ig 7 d, 60 min) is reported as 30.24 ± 7.80 s. The Pain threshold ([1]; high dose 30 mg/kg ig 7 d, 90 min) was 30.66 ± 8.35 s, the Pain threshold ([1]; high dose 30 mg/kg ig 7 d, 120 min) was 29.87 ± 7.43 s and the Pain threshold ([1]; low dose 7.5 mg/kg ig 7 d, 30 min after final administration) was 23.98 ± 6.89 s. For the same compound, the Pain threshold ([1]; low dose 7.5 mg/kg ig 7 d, 60 min) was 24.75 ± 6.91 s, the Pain threshold ([1]; low dose 7.5 mg/kg ig 7 d, 90 min) was 25.16 ± 8.87 s and the Pain threshold ([1]; low dose 7.5 mg/kg ig 7 d, 120 min) was 24.28 ± 7.17 s. For the same compound, the Pain threshold ([1]; middle dose 15 mg/kg ig 7 d, 30 min after final administration) was 26.82 ± 7.99 s, the Pain threshold ([1]; middle dose 15 mg/kg ig 7 d, 60 min) was 28.52 ± 6.18 s and the Pain threshold ([1]; middle dose 15 mg/kg ig 7 d, 90 min) was 28.66 ± 8.73 s. For the same compound, the Pain threshold ([1]; middle dose 15 mg/kg ig 7 d, 120 min) was 27.88 ± 7.74 s, the “Total times of hematochezia within the four periods” value ([2]; high dose 30 mg/kg ig) was 31.80±6.6 and the Colon length ([2]; high dose 30 mg/kg ig) was 6.65±0.67 cm. For the same compound, the IL-1 content ([2]; high dose 30 mg/kg ig) was 45.10 ± 8.88 pg/mL, the “Total times of hematochezia within the four periods” value ([2]; low dose 7.5 mg/kg ig) was 43.10±7.59 and the Colon length ([2]; low dose 7.5 mg/kg ig) was 6.25±1.17 cm. For the same compound, the IL-1 content ([2]; low dose 7.5 mg/kg ig) was 48.08 ± 13.18 pg/mL, the “Total times of hematochezia within the four periods” value ([2]; middle dose 15 mg/kg ig) was 43.20±5.31 and the Colon length ([2]; middle dose 15 mg/kg ig) was 6.47±0.71 cm. For the same compound, the IL-1 content ([2]; middle dose 15 mg/kg ig) was 44.09 ± 9.13 pg/mL, the “IL-1 content, in words” value ([2]; compared with the model group) was “decrease” and the “colon length, in words” value ([2]; compared with the model group) was “significantly increase”. The “total times of hematochezia, in words” value ([2]; compared with the model group) was “reduce”, the “latent time, in words” value ([3]; compared with the model group) was “extend” and the “mice writhing times caused by acetic acid, in words” value ([3]; compared with the model group) was “significantly decrease”. For the same compound, the Writhing times ([3]; high dose 30 mg/kg ig) was 19.9±12.2, the Latent time ([3]; high dose 30 mg/kg ig) was 373.6 ± 114.0 s and the Inhibition ratio ([3]; high dose 30 mg/kg ig) was 49.4%. The Writhing times ([3]; low dose 7.5 mg/kg ig) was 28.3±11.9, the Latent time ([3]; low dose 7.5 mg/kg ig) was 263.5 ± 77.7 s and the Inhibition ratio ([3]; low dose 7.5 mg/kg ig) was 28.0%. It also gave a Writhing times ([3]; middle dose 15 mg/kg ig) of 24.9±12.2, a Latent time ([3]; middle dose 15 mg/kg ig) of 312.7 ± 90.9 s and an Inhibition ratio ([3]; middle dose 15 mg/kg ig) of 36.6%. The “Colon 5-HT” value ([4]; high dose 30 mg/kg ig 20 d) was 14.34±2.40^∗∗∗ µg/mg, the “Serum 5-HT” value ([4]; high dose 30 mg/kg ig 20 d) was 29.03±5.29^∗∗∗ µg/ml and the AWR scoring ([4]; high dose 30 mg/kg ig 20 d, 20 mm Hg) was 1.38±0.51^∗∗ ∗. The AWR scoring ([4]; high dose 30 mg/kg ig 20 d, 40 mm Hg) was 2.20±0.57^∗∗∗, the AWR scoring ([4]; high dose 30 mg/kg ig 20 d, 60 mm Hg) was 2.96±0.70^∗∗∗ and the “Colon 5-HT” value ([4]; low dose 7.5 mg/kg ig 20 d) was 16.84 ± 2.87 µg/mg. For the same compound, the “Serum 5-HT” value ([4]; low dose 7.5 mg/kg ig 20 d) was 34.2 ± 5.37 µg/mL, the AWR scoring ([4]; low dose 7.5 mg/kg ig 20 d, 20 mm Hg) was 2.28±0.58 and the AWR scoring ([4]; low dose 7.5 mg/kg ig 20 d, 40 mm Hg) was 3.20±0.43. For the same compound, the AWR scoring ([4]; low dose 7.5 mg/kg ig 20 d, 60 mm Hg) was 3.61±0.24, the “Colon 5-HT” value ([4]; middle dose 15 mg/kg ig 20 d) was 14.99±2.90^∗∗ µg/mg and the “Serum 5-HT” value ([4]; middle dose 15 mg/kg ig 20 d) was 31.88±4.40^∗∗ µg/ml. The AWR scoring ([4]; middle dose 15 mg/kg ig 20 d, 20 mm Hg) was 1.79±0.23^∗∗ ∗, the AWR scoring ([4]; middle dose 15 mg/kg ig 20 d, 40 mm Hg) was 2.87±0.65^∗∗ and the AWR scoring ([4]; middle dose 15 mg/kg ig 20 d, 60 mm Hg) was 3.27±0.51^∗∗. The “5-HT level in colon and serum, in words” value ([4]; compared with the model group) was “significantly decrease”, the “AWR scoring, in words” value ([4]; compared with the model group) was “significantly decrease” and the “pain threshold of the mice with inflammatory pain, in words” value ([5]; compared with the model group) was “significantly extend”. For the same compound, the Pain threshold ([5]; high dose 30 mg/kg ig once per day, 0 d) was 12.85±2.09^∗ s, the Pain threshold ([5]; high dose 30 mg/kg ig once per day, 1 d) was 6.44±0.92^∗ s and the Pain threshold ([5]; high dose 30 mg/kg ig once per day, 3 d) was 8.17±1.14^∗ s. For the same compound, the Pain threshold ([5]; high dose 30 mg/kg ig once per day, 7 d) was 9.05±0.84^∗ s, the Pain threshold ([5]; low dose 7.5 mg/kg ig once per day, 0 d) was 12.75±2.46^∗ s and the Pain threshold ([5]; low dose 7.5 mg/kg ig once per day, 1 d) was 6.36±0.89^∗ s. For the same compound, the Pain threshold ([5]; low dose 7.5 mg/kg ig once per day, 3 d) was 7.98±1.21^∗ s, the Pain threshold ([5]; low dose 7.5 mg/kg ig once per day, 7 d) was 8.95±0.67^∗ s and the Pain threshold ([5]; middle dose 15 mg/kg ig once per day, 0 d) was 12.86±2.07^∗ s. For the same compound, the Pain threshold ([5]; middle dose 15 mg/kg ig once per day, 1 d) was 6.41±0.91^∗ s, the Pain threshold ([5]; middle dose 15 mg/kg ig once per day, 3 d) was 8.10±1.30^∗ s and the Pain threshold ([5]; middle dose 15 mg/kg ig once per day, 7 d) was 8.99±0.92^∗ s.
